{
  "source": "patent US12636291B2",
  "about": "“Compositions and methods relating to use of agonists of ALPHA5-containing GABAA receptors” (Centre for Addiction and Mental Health, priority 2019, dated 2026)",
  "system": "SV129 mice",
  "test": "Neurogenesis (proliferation, survival, maturation) in the SV129 mouse model",
  "format": "in vivo",
  "details": "compared to VEH",
  "source_text": "We next assessed the effects of GL-II-73 on neurogenesis using the SV129 mouse model Kim et al. 2017. Neural Plasticity, doi.org.10.1155/2017/5863258. Specifically, we assessed the effects of treatment on neuronal cell proliferation, survival, and maturation. It is now recognized that neurogenesis occurs not only during development, but also in the adult brain. […] Specifically, adult neurogenesis is known to occur in three regions in the mammalian brain: (i) the subgranular zone (SGZ) of the dentate gyrus in the hippocampus, which is a region that is involved in regulating learning and memory; (ii) the subventricular zone (SVZ), which is situated throughout the lateral walls of the brain's lateral ventricles; and (ii) the amygdala. New neurons born in the SGZ migrate into the granule cell layer of the dentate gyrus and eventually become granule cells. These newborn neurons integrate into the existing circuitry and receive functional input. Adult neurogenesis in the hippocampus is therefore defined as the progression from neural stem cell to mature dentate granule neuron. All stages of adult neurogenesis are regulated by physiological activity, including the proliferation, differentiation, fate determination of adult neural stem cells (NSCs) and progenitors, and the survival, maturation, and integration of newborn neurons.\nThe stages of neurogenesis can be broken down into (i) proliferation, (ii) survival of the newly formed cells, and (iii) their maturation. Each can be evaluated using specific markers for proliferation, survival, and maturation. […] BrdU can be used to show survival of the newly proliferating cells since it is incorporated into the newly synthesized DNA of replicating cells and is then maintained in the newly formed cells. Thus, quantitative immunohistochemistry against BrdU is used as a proxy of survival. Finally, doublecortin can be used as a proxy of maturation. Previous studies have shown that all steps of neurogenesis were down regulated in the SV129 mice, and further that chronic treatment with fluoxetine, a first line monoaminergic antidepressant, increased the neurogenesis in this mouse model. We therefore used this model system to assess the effects of chronic treatment with GL-II-73 on neurogenesis.\nFluoxetine treatment was used as a positive control in each experiment.",
  "data": [
    {"smiles": "C#Cc1ccc2c(c1)C(c1ccccc1F)=N[C@H](C)c1c(C(=O)N(C)C)ncn1-2", "note": "(stereo in doubt) [GL-II-73, 8-ethynyl-6-(2-fluorophenyl)-N,N,4-trimethyl-4H-benzo[f]imidazo[1,5-a][1,4]diazepine-3-carboxamide]", "values": [
      {"measurement": "proliferation: number of K167-positive cells", "setting": "chronic treatment (4 weeks), FIG. 13A, FLX p<0.001, GL-II-73 p<0.05", "value": "increased the number of K167-positive cells"},
      {"measurement": "survival: BrdU-positive cells", "setting": "chronic treatment (4 weeks), FIG. 13B", "value": "increased survival as shown by the increased in BrdU labeling in SV129 mice, as shown in FIG. 13B, even though not reaching significance"},
      {"measurement": "maturation index (DCX+cells possessing tertiary dendrites over the total DCX+cells)", "setting": "chronic treatment, FIG. 14B, ps<0.01", "value": "an increase with both FLX and GL-II-73"}
    ]}
  ]
}
